Measurements as given in patent publication US4207326A, “Antimicrobial quaternary pyrazole derivatives” (Cilag-Chemie A.G., priority 1979, dated 1980).

Tested on: S. pyogenes
Test: Antibacterial activity: Minimum Inhibitory Concentration
Format: cell-based, Streptococcus pyogenes NCTC 8198
Settings: Day 1, 37° C., 24 hours
Description: (§1) The antimicrobial activity was determined by inoculation of the test microorganism into suitable growth media containing solutions of the compounds at concentrations of 100, 50, 10, 5, 1.0, 0.5 and 0.1 μg/ml. The reference antibiotics used were Gentamicin for the antibacterial tests and Amphotericin B for the antimycotic and antifungal tests. After incubation the antimicrobial activity was recorded as the Minimal Inhibitory Concentration (M.I.C.), i.e., the lowest concentration preventing macroscopically visible growth, for each test compound against each organism.
(§2) An initial solution of each formula (I) compound to be tested in sterile distilled water was prepared at a concentration of 1000 μg/ml. With appropriate dilutions using sterile distilled water, additional solutions were prepared at concentrations of 500, 100, 50, 10, 5 and 1 μg/ml.
They were cultured and maintained on Tryptone Soy Agar (Oxoid CM 131), with the addition of 10% horse blood for the S. pyogenes.
To prepare the organisms as inocula for the test, slopes of this medium were streaked with the organisms and incubated at 37° C. for 24 hours. 4.5 Ml volumes of Brian-Heart Infusion Broth (Oxoid CM 225) were then inoculated with a platinum loop from the agar slope cultures and incubated for 24 hours at 37° C. The final inocula were then prepared by adding 0.1 ml aliquots of the Brain-Heart Infusion Broth cultures to 100 ml volumes of sterile physiological saline.
(a) For the test on each of the bacterial strains and each of the test and reference compounds, a series of 8 tubes containing 4.5 ml volumes of Brain-Heart Infusion Broth (Oxoid CM 225) were prepared. To 7 of these were added 0.5 ml volumes of the final solutions of the test compouns, giving final concentrations in the broths of 100, 50, 10, 5, 1.0, 0.5 and 0.1 μg/ml. To the eighth tube in each series was added 0.5 ml of the solvent used and diluted as for the preparation of the 1000 μg/ml solution of the compound. This tube was used as the growth control. The tubes were inoculated with 0.02 ml aliquots of the inocula prepared in accordance with "(a) Bacteria" above, and incubated at 37° C. for 24 hours. The tubes were then examined for evidence of bacterial growth as shown by turbidity of the medium and the lowest concentration of the test compound which prevented bacterial growth was recorded as the Minimal Inhibitory Concentration. This test procedure was carried out on two separate days.

Compound	Minimum Inhibitory Concentration [µg/mL]
2,3(5)-dimethyl-1-dodecyl-pyrazolium methosulfate [Example 8-A]	5
2,3(5)-dimethyl-1-hexadecyl-pyrazolium methosulfate [Example 9]	0.5

Same assay, conditions: Day 2, 37° C., 24 hours

Compound	Minimum Inhibitory Concentration [µg/mL]
2,3(5)-dimethyl-1-dodecyl-pyrazolium methosulfate [Example 8-A]	5
2,3(5)-dimethyl-1-hexadecyl-pyrazolium methosulfate [Example 9]	0.5

Same assay, conditions: Streptococcus pyogenes, Day 1, 37° C., 24 hours

Compound	MIC [µg/mL]
CCCCCCCCCCCCn1c(C)cc(C)[n+]1C [Example 1, 1-dodecyl-2,3,5-trimethyl-pyrazolium methosulfate]	1
CCCCCCCCCCCCCCCCn1c(C)cc(C)[n+]1C [Example 2, 1-hexadecyl-2,3,5-trimethyl-pyrazolium methosulfate]	0.5
CCCCCCCCCCCCCCCCn1ccc[n+]1C [Example 3-D, 1-hexadecyl-2-methyl-pyrazolium methosulfate]	0.5
CCCCCCCCCCCCn1ccc[n+]1C [Example 3-E, 1-dodecyl-2-methy-pyrazolium methosulfate]	5

Same assay, conditions: Streptococcus pyogenes, Day 2, 37° C., 24 hours

Compound	MIC [µg/mL]
CCCCCCCCCCCCn1c(C)cc(C)[n+]1C [Example 1, 1-dodecyl-2,3,5-trimethyl-pyrazolium methosulfate]	0.5
CCCCCCCCCCCCCCCCn1c(C)cc(C)[n+]1C [Example 2, 1-hexadecyl-2,3,5-trimethyl-pyrazolium methosulfate]	0.5
CCCCCCCCCCCCCCCCn1ccc[n+]1C [Example 3-D, 1-hexadecyl-2-methyl-pyrazolium methosulfate]	0.5
CCCCCCCCCCCCn1ccc[n+]1C [Example 3-E, 1-dodecyl-2-methy-pyrazolium methosulfate]	5

Tested on: C. albicans
Test: Antimycotic activity: Minimum Inhibitory Concentration
Format: cell-based, Candida albicans ATCC 10231
Settings: C. albicans, Day 1; pH 5.5, 37° C., 72 hours
Description: as §1, §2
The two species, C. albicans and C. tropicalis, were maintained on Sabouraud-Dextrose Agar (Oxoid CM41) and cultures for the preparation of the inoculum were incubated on this agar at 37° C. for 48 hours. 4.5 Ml volumes of citric acid-phosphate buffer pH 5.5 plus Yeast-Nitrogen Base (Difco 0392-15) were then inoculated from the agar cultures and incubated at 37° C. for 48 hours. 0.1 Ml aliquots of these cultures were then added to 100 ml volumes of sterile physiological saline to give the final inocula.
(b) For the tests on each of the C. albicans, C. tropicalis and C. neoformans strains and each of the test and reference compounds, a series of 8 tubes containing 4.5 ml volumes of citric acid-phosphate buffer pH 5.5 plus Yeast-Nitrogen Base (Difco 0392-15) were prepared. To 7 of these were added 0.5 ml volumes of the final solutions of the test compounds, giving final concentrations in the broths of 100, 50, 10, 5, 1.0, 0.5 and 0.1 μg/ml. To the eighth tube in each series was added 0.5 ml of the solvent used and diluted as for the preparation of the 1000 μg/ml solution of the compound. This tube was used as the growth control. The tubes were then inoculated with 0.1 ml aliquots of the inocula prepared as in "(b) Fungi" above. The tubes inoculated with the C. albicans and C. tropicalis were inoculated at 37° C. for 72 hours and the tubes inoculated with the C. neoformans straim were incubated at 30° C. for 72 hours. […] The tubes were then examined for evidence of growth as shown by turbidity of the medium and the lowest concentration of the test compound which prevented fungal growth was recorded as the Minimal Inhibitory Concentration. This test procedure was carried out on two separate days.

Compound	Minimum Inhibitory Concentrations [µg/mL]
2,3(5)-dimethyl-1-dodecyl-pyrazolium methosulfate [Example 8-A]	10
2,3(5)-dimethyl-1-hexadecyl-pyrazolium methosulfate [Example 9]	5

Same assay, conditions: C. albicans, Day 2; pH 5.5, 37° C., 72 hours

Compound	Minimum Inhibitory Concentrations [µg/mL]
2,3(5)-dimethyl-1-dodecyl-pyrazolium methosulfate [Example 8-A]	50
2,3(5)-dimethyl-1-hexadecyl-pyrazolium methosulfate [Example 9]	10

Same assay, conditions: Candida albicans, pH 5.5, C. albicans, Day 1; pH 5.5, 37° C., 72 hours; read-out: Minimum Inhibitory Concentrations

Compound	MIC [µg/mL]
CCCCCCCCCCCCn1c(C)cc(C)[n+]1C [Example 1, 1-dodecyl-2,3,5-trimethyl-pyrazolium methosulfate]	10
CCCCCCCCCCCCCCCCn1c(C)cc(C)[n+]1C [Example 2, 1-hexadecyl-2,3,5-trimethyl-pyrazolium methosulfate]	1
CCCCCCCCCCCCCCCCn1ccc[n+]1C [Example 3-D, 1-hexadecyl-2-methyl-pyrazolium methosulfate]	1
CCCCCCCCCCCCn1ccc[n+]1C [Example 3-E, 1-dodecyl-2-methy-pyrazolium methosulfate]	50

Same assay, conditions: Candida albicans, pH 5.5, C. albicans, Day 2; pH 5.5, 37° C., 72 hours; read-out: Minimum Inhibitory Concentrations

Compound	MIC [µg/mL]
CCCCCCCCCCCCn1c(C)cc(C)[n+]1C [Example 1, 1-dodecyl-2,3,5-trimethyl-pyrazolium methosulfate]	50
CCCCCCCCCCCCCCCCn1c(C)cc(C)[n+]1C [Example 2, 1-hexadecyl-2,3,5-trimethyl-pyrazolium methosulfate]	1
CCCCCCCCCCCCCCCCn1ccc[n+]1C [Example 3-D, 1-hexadecyl-2-methyl-pyrazolium methosulfate]	1
CCCCCCCCCCCCn1ccc[n+]1C [Example 3-E, 1-dodecyl-2-methy-pyrazolium methosulfate]	50

Tested on: A. corymbifera
Test: Antifungal activity: Minimum Inhibitory Concentration
Format: cell-based, Absidia corymbifera NCPF 2001
Settings: A. corymbifera, Day 1; 27° C., one week
Description: as §1, §2
A. corymbifera NCPF 2001
The A. corymbifera, A. fumigatus, S. schenkii, T. rubrum, T. mentagrophytes, M. canis and P. verrucosa strains were all maintained on Sabouraud-Dextrose Agar (Oxoid CM 41) by incubating for 14 days at 27° C. To prepare the inocula 30 ml volumes of Sabouraud-Liquid medium (Oxoid CM 147) were inoculated from the agar cultures and incubated at 27° C. until heavy uniform growth resulted. The mycelial growth was then broken up by shaking with glass beads.
1 Ml aliquots were removed from each of the cultures for the purpose of making viable counts and the cultures were then held at 4° C. The viable counts were made by preparing serial ten-fold dilutions of the cultures in sterile physiological saline and spreading on plates of Sabouraud-Dextrose Agar (Oxoid CM 41) which were then incubated at 27° C. for 14 days. When the viable counts had confirmed that each of the inocula contained approximately 10^6 colony forming units (C.F.U.) per ml the cultures were withdrawn from the refrigerator and used as the inocula for the tests.
(c) For the tests on each of the remaining seven strains and each of the test and reference compounds, a series of 8 tubes containing 4.5 ml volumes of Sabouraud-Liquid Medium (Oxoid CM 147) were prepared. To 7 of these were added 0.5 ml volumes of the final solutions of the test compounds, giving final concentrations in the broths of 100, 50, 10, 5, 1.0, 0.5 and 0.1 μg/ml. To the eighth tube in each series was added 0.5 ml of the solvent used and diluted as for the preparation of the 500 μg/ml solution of the compound. This tube was used as a growth control. The tubes were then inoculated with 0.1 ml aliquots of the inocula prepared as in "(b) Fungi" above. The tubes were then incubated at 27° C. with continuous shaking for a period of one week. The tubes were then examined for evidence of growth as shown by the presence of mycelial growth in the medium and the lowest concentration of the test compound which prevented fungal growth was recorded as the Minimal Inhibitory Concentration. This test procedure was carried out on two separate days.

Compound	Minimum Inhibitory Concentration [µg/mL]
2,3(5)-dimethyl-1-dodecyl-pyrazolium methosulfate [Example 8-A]	100
2,3(5)-dimethyl-1-hexadecyl-pyrazolium methosulfate [Example 9]	10

Same assay, conditions: A. corymbifera, Day 2; 27° C., one week

Compound	Minimum Inhibitory Concentration [µg/mL]
2,3(5)-dimethyl-1-dodecyl-pyrazolium methosulfate [Example 8-A]	100
2,3(5)-dimethyl-1-hexadecyl-pyrazolium methosulfate [Example 9]	10

Same assay, conditions: Lichtheimia corymbifera, A. corymbifera, Day 1; 27° C., one week; read-out: Minimum Inhibitory Concentration

Compound	MIC [µg/mL]
CCCCCCCCCCCCn1c(C)cc(C)[n+]1C [Example 1, 1-dodecyl-2,3,5-trimethyl-pyrazolium methosulfate]	> 100
CCCCCCCCCCCCCCCCn1c(C)cc(C)[n+]1C [Example 2, 1-hexadecyl-2,3,5-trimethyl-pyrazolium methosulfate]	50
CCCCCCCCCCCCCCCCn1ccc[n+]1C [Example 3-D, 1-hexadecyl-2-methyl-pyrazolium methosulfate]	10
CCCCCCCCCCCCn1ccc[n+]1C [Example 3-E, 1-dodecyl-2-methy-pyrazolium methosulfate]	100

Same assay, conditions: Lichtheimia corymbifera, A. corymbifera, Day 2; 27° C., one week; read-out: Minimum Inhibitory Concentration

Compound	MIC [µg/mL]
CCCCCCCCCCCCn1c(C)cc(C)[n+]1C [Example 1, 1-dodecyl-2,3,5-trimethyl-pyrazolium methosulfate]	> 100
CCCCCCCCCCCCCCCCn1c(C)cc(C)[n+]1C [Example 2, 1-hexadecyl-2,3,5-trimethyl-pyrazolium methosulfate]	50
CCCCCCCCCCCCCCCCn1ccc[n+]1C [Example 3-D, 1-hexadecyl-2-methyl-pyrazolium methosulfate]	5
CCCCCCCCCCCCn1ccc[n+]1C [Example 3-E, 1-dodecyl-2-methy-pyrazolium methosulfate]	100
